According to patent US20040229336A1, “Method for in vitro culture of viruses of the togaviridae and flaviviridae families and uses” (Bio Merieux, priority 1999, published 2004):

Legend:
LSR receptor = target: T1, LSR receptor (Homo sapiens, UniProt Q86X29); test: Kinetics of attachment of the LVPs to the LSR receptor of hepatocytes (PLC/PRF/5 cells), quantitative RT-PCR of HCV RNA; type: cell-based; settings: 0.5 mM oleate vs without oleate, +4° C., 1 to 9 hours
T1 construct: endogenous in cells; host or cells: PLC/PRF/5 human hepatocarcinoma cells
T1 sequence (Q86X29 1-649): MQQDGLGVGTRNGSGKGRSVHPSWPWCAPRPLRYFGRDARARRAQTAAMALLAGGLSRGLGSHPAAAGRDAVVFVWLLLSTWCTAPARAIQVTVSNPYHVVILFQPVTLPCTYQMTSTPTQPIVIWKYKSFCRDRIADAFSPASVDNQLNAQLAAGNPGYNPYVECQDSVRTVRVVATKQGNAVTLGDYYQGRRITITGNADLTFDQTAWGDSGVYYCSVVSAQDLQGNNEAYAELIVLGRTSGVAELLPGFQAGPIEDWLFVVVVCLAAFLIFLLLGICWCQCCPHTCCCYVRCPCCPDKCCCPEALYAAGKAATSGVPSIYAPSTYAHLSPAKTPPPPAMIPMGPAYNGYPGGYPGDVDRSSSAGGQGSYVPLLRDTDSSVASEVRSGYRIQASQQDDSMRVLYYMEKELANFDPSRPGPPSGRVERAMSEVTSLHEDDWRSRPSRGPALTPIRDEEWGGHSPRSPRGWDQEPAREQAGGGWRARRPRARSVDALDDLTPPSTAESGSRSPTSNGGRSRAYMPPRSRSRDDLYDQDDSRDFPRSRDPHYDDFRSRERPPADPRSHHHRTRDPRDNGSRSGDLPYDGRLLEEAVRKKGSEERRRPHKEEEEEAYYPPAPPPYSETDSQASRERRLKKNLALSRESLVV
Method: A fraction containing LVPs with a density of between 1.025 g/ml and 1.055 g/ml was obtained from an HCV-positive serum as described in example 1.
The amount of proteins present in the LVP fraction was determined by the Lowry method using the “Protein Assay” kit (Sigma Diagnostics) and the viral titer was evaluated by quantification of the HCV RNA by RT-PCR and real-time fluorescence detection (LightCycler™, Roche) (Wittwer et al., Biotechniques, 22: 176-181 (1997)).
The PLC/PRF/5 cell line, described in example 2 and cultured in DMEM medium-10% SVF, was used for studying the attachment of LVPs to the LSR receptor in the presence or absence of oleate.
The results were obtained according to the following protocol:
The PLC/PRF/5 cells were seeded at 1 million cells/well, so as to obtain, after incubation for 24 hours at 37° C., 5% CO2, approximately 80% confluence.
Two washes in cold 1×PBS buffer were carried out, and then 1 ml of cold complete DMEM medium containing 0.2% of BSA is added to the PLC cells maintained on a bed of ice.
The LVP fraction (i.e. 10 mg of proteins and 1.7×10^6 of copies of HCV RNA) is added to the cells in the presence or absence of 0.5 mM oleate. […]
An incubation was carried out at +4° C. for a period of time ranging from 1 to 9 hours. […] The RNAs were then purified using this same kit and analyzed by quantitative RT-PCR (LightCycler™). […]

hepatitis C virus = test: Infection of PLC/PRF/5 cells with HCV-positive serum or LVP fractions, HCV genome in culture supernatants by semi-nested RT-PCR; type: cell-based, human
Method: The culture medium used is DMEM medium (marketed by Gibco BRL) supplemented with: 1 mM of sodium pyruvate (Gibco), 1% of nonessential amino acids (Boehringer Mannheim), 2 mM of glutamine (Gibco BRL), 200 U/ml of penicillin (bioMérieux), […] of streptomycin (bioMérieux) and 10% of calf serum (Boehringer).
The cells originate from the PLC/PRF/5 cell line (Alexander cells) (ATCC reference: CRL 8024), which is a line established from a human hepatocarcinoma. This line, which has integrated a defective hepatitis B genome, secretes the HBs antigen of the hepatitis B virus but no infectious virus. The cells are cultured in the complete DMEM medium (Gibco-BRL) supplemented with 10% of foetal calf serum, mentioned above. The cells are washed with PBS (Gibco-BRL) preheated to 37° C. 1 ml of DMEM supplemented with 0.2% of BSA (Sigma) and 50 μg/ml of lipoproteins originating from each fraction or 100 μl of serum filtered over a 0.45μ membrane are added. Simultaneously, a solution of oleic acid in isopropanol, prepared beforehand (100 mM), is added in a concentration range of 0.1 to 0.8 mM. The cells are then subjected to incubation for 3 hours at 37° C. under a 5% CO2 atmosphere. The medium is then replaced with complete DMEM medium supplemented with 10% of foetal calf serum. The cells are returned to the incubator under the conditions described above. […]

HCV = test: Observation in patients infected both with HIV and with HCV taking HIV protease inhibitors; type: in vivo, human
Description: For this reason, it is advantageous to add to the method of the invention at least one apoptosis-modulating agent.

Row | SMILES | attachment of the LVPs to the LSR receptor (number of HCV RNA copies) (LSR receptor) | pathway for endocytosis of the LVPs at the time of the infection (hepatitis C virus; LVP fractions with densities <1.0063, 1.0063-1.063 and >1.063 g/ml) | presence of the HCV genome in the culture supernatants (hepatitis C virus; infection with 100 μl of serum of patients no. 1 and no. 2, with vs without 0.5 mM oleic acid) | HCV viremia and hepatic cytolysis (HCV)
1 | CCCCCCCC/C=C\CCCCCCCC(=O)O [oleic acid] | significantly increased | facilitates the pathway for endocytosis of the LVPs | detected at a higher frequency | –
2 | CC(C)c1nc(CN(C)C(=O)N[C@H](C(=O)N[C@@H](Cc2ccccc2)C[C@H](O)[C@H](Cc2ccccc2)NC(=O)OCc2cncs2)C(C)C)cs1 [Ritonavir] | – | – | – | increase in the HCV virema associated with hepatic cytolysis
